Reference: patent US20060063209A1, “Engineered antibody fragment that irreversibly binds an antigen” (THE REGENTS OF THE UNIVERSITY OF CALIFORNIA, priority 2004, published 2006)

Tests used:
antibody 2D12.5 = experiment: Competitive immunoassay (ELISA) of metal chelate binding; parameters: species or system mouse
Excerpt: FIG. 9 Relative binding of metal-(S)NBD complexes to antibody 2D12.5. A representative set of competitive binding curves obtained from ELISA experiments. Distance between midpoints is related to difference between dissociation constants. Error bars (representing the standard error of the mean) are shown but are generally smaller than the data points.
FIG. 14 Binding of yttrium chelates with different stereochemistry to antibody 2D12.5, showing that the antibody binds a chelate with the side chain in the R configuration approximately one order of magnitude less well than the S configuration. […] Error bars are smaller than the data symbols. Data were generated by competitive ELISA.
A competitive immunoassay to measure the binding constants of various metal-(S)NBD complexes relative to the original Y^3+ complex (FIG. 9) was developed to assess the metal selectivity of antibody 2D12.5. Briefly, 2D12.5 was incubated at 37° C. in the presence of immobilized HSA-21T-Y-(S)BAD and a soluble metal-(S)NBD competitor (Y-(S)BAD was linked to human serum albumin via 2-iminothiolane). The metal-(S)NBD concentration was varied from μM to pM in order to determine the relative binding affinity of 2D12.5 for each metal chelate in comparison to Y-(S)NBD. […] Other antibodies that bind metal chelates do so with a strong preference for one or possibly two metals (Love, R. et al., Biochemistry 32, 10950-10959 (1993), and Khosraviani, M., et al., (2000) Bioconjugate Chem., 11, 267-277). For example, the (S)NBD chelate of group IIIB ion Sc(III) binds to the antibody with a much lower affinity (<1%) than the strongest binding rare earth complexes, perhaps because Sc(III) has a much smaller ionic radius (Meehan, P. R., et al., Coord. Chem. Rev., 181, 121145, and Shannon, R. D. (1976) Acta Crystallogr., Sect. A: Found. Crystallogr., A32, 751-767).

[1] = Whole-body clearance of indium-111 labeled electrophilic benzyl-EDTA derivatives; type: in vivo; conditions: indium-111 labeled chelate, BALB/c mice; for apparent half-life, whole-body clearance: after tail-vein injection
Description: FIG. 4 Whole-body clearance of indium-^111I labeled electrophilic derivatives of benzyl-EDTA from BALB/c mice after tail-vein injection. Here the objective was to find an electrophilic chelate that clears from the animal quickly when not captured by an engineered CHA255.
As reactive ligands, a small set of chelates bearing electrophilic para substituents (FIG. 3) that could react with cysteine were prepared. To be most useful, the electrophilic ligands should be stable in biological media so that they not react prematurely with common biological nucleophiles such as the cysteine on glutathione or in albumin (Geigy Scientific Tables Vol 3, C. Lentner, ed., Ciba-Geigy Ltd., Basel, Switz (1984)). The whole-body clearance of the radiolabeled chelates from mice was studied (FIG. 4 and Chmura, A. J., et al., J. Controlled Release 78:249-258 (2002)) to identify the electrophilic chelates that are unreactive in plasma in vitro, and which also quantitatively clear from live animals.

HLA-DR10 = experiment: Gel shift assay of permanent attachment of sL1 mutants (western blot); type: binding; conditions: for cross-linking of linker-activated T97C to HLA-DR10: sL1 mutant T97C activated with electrophile, 19 h incubation, western blot
Excerpt: FIG. 25 Gel shift assay of permanent attachment of sL1 to HLA-DR: western blot stained with anti-HLA-DR10β (antibody HL-40). The glycosylated β subunit of HLA-DR10 runs approximately 28-34 kDa, so the cross-linked sL1-HLA-DR10β should run at 57-63 kDa (bands in lanes 5 and 10). Lanes 2-6 are cysteine mutant F96C and lanes 7-11 are cysteine mutant T97C. Lanes 2 and 7 are sL1 mutant only; lanes 3 and 8 are sL1 mutant and HLA-DR10 target; lanes 4 and 9 are sL1 mutant and electrophile (no target); lanes 5 and 10 are the complete experiment: sL1 mutant, electrophile, and target; and lanes 6 and 11 are sL1 mutant with electrophile and recombinant human serum albumin as a negative control. Lnkr: nitrophenyl ester; Trgt: HLA-DR10.
Irreversible Binding Studies of sL1 and HLA-DR10 The general strategy for the development of an irreversibly binding Lym1 sFv (sL1) is outlined in FIG. 24. Lym-1 scFv (sL1) is genetically altered to incorporate a cysteine residue in various positions of one of the six CDRs. This free sulfhydryl is then activated with an alkylbromoacetate consisting of varied R-groups (see FIG. 34) which modify the reactivity of the covalent bond formation. The activated sL1 is then incubated with a crude mixture containing the target protein. The mixture is loaded on a SDS-PAGE gel and then investigated for the appearance of new, high molecular weight bands corresponding to the conjugation of the target protein and the sL1.
The general experimental protocol for the gel shift assays in the figures is as follows. An aliquot of concentrated P. pastoris expression media containing an sL1 mutant (8-10 μL, positive by anti-V5 stain for sL1 and dialyzed into 10 mM HEPES buffer pH 8.0), is incubated for 15 min with a chosen bromoacetate ester (e.g., nitrophenyl bromoacetate) at a concentration of 10 mM, to alkylate the Cys sidechain. […] Reducing SAB is added to each sample, followed by SDS-PAGE and western blotting.

Fab S95C = experiment: Covalent attachment of 111In-chelates to engineered Fab S95C (SDS-PAGE); type: binding; conditions: physiological pH and temperature, raw culture medium with 10% fetal calf serum
Description: FIG. 5 Conjugation of electrophilic ^111In-benzyl-EDTA derivatives with engineered Fab S95C. Phosphorimage of 10-20% SDS-PAGE gel of samples of complete culture media incubated with ^111In-labeled (A) CABE, (B) CpABE, (C) AABE, and (D) ABE. The radiolabeled light chains migrate near 25 Kd.
To investigate whether either the S95C or the N96C Fab would bind irreversibly to its target, ^111In-labeled chelates bearing electrophilic groups were incubated at physiological pH and temperature with raw tissue culture medium from the cells expressing these recombinant proteins. The culture medium contained 10% fetal calf serum, representative of typical biological media.
The samples were analyzed by denaturing gel electrophoresis (SDS-PAGE). Separation under reducing and denaturing conditions on SDS-PAGE separates the light chain from the heavy chain of each Fab, functionally destroying the antibody-binding pocket. Chelates bound to the Fab but not covalently linked will dissociate because the antibody-binding pocket is no longer folded. […] However, a chelate that not only bound to a Fab but also covalently linked will be attached to the Fab light chain and migrate with it on SDS-PAGE.

avidin = avidin (Gallus gallus, UniProt P02701); conditions: cited from earlier work
G54C mutant of 2D12.5 = experiment: Permanent binding to G54C, competitive 90Y-AABD attachment, SDS-PAGE; conditions: 37° C.
Description: FIG. 17 a) Scheme describing the permanent binding pair. b) Infinite binding is observed not only for ^90Y-AABD but also for ^111In-AABD, assayed by SDS-PAGE under denaturing conditions where only permanently bound complexes remain attached to the antibody.
FIG. 18 The G54C mutant was preincubated in triplicate with 10 μM AABD complexes of Y^3+, In^3+ or Cu^2+, a negative control N-(1-carbamoyl-2-(4-nitrophenyl)-ethyl)-acrylamide or N-(4-carboxymethylphenyl)-acrylamide, or just buffer, for 5 min, 20 min or 120 min at 37° C., pH 7.5. At the stated times ^90Y-AABD (1 μM) was added to each solution to compete for free G54C. Permanent binding was assayed by measuring band intensities after SDS-PAGE. a) Phosphorimage of gel. The fainter the bands, the greater the permanent binding by the unlabeled ligand. b) Crystal structures of Y-DOTA, In-DOTA-mono(p aminoanilide) (some atoms removed for clarity) and Cu-DOTA.
FIG. 19 a) Metal-AABD (10 μM) complexes were preincubated separately with aliquots of G54C for 5 min, followed by addition of 1 μM ^90Y-AABD, which competes for free G54C, and SDS-PAGE analysis. b) From quantitative phosphorimaging, the highest-affinity AABD complexes form permanent bonds with G54C with higher yields than more 3+weakly binding rare earth-AABD complexes whose ionic radii are slightly smaller (Lu Yb^3+) or larger (Ce^3+, La^3+) than ideal.
We were curious to see if an even weaker binder such as a copper chelate (KD˜10^−4 M for Cu-NBD) would bind irreversibly under ordinary conditions. We tested this by comparing the permanent binding of Y^3+-, In^3+-, and Cu^2+-AABD, using competitive ^90Y-AABD attachment as an indicator (FIG. 18). […] Weaker binding In-AABD blocks >50% of the sites after 5 min preincubation, and even more at later times. Very weakly binding Cu-AABD initially occupies only about 10% of the G54C sites under these conditions, but it has permanently attached to G54C in good yield after 2 hr, blocking>70% of the sites.

HLADR = experiment: Monovalent binding of Lym-1 single-chain antibody
Excerpt: This is a combination of (1) the behavior characteristic of a weak binder, which should permeate a tumor, and (2) the behavior of an extremely strong binder, which should ultimately lock onto its targets throughout the tumor. This combination of good penetration and permanent binding is a unique and revolutionary aspect of this technology.

Sequence of avidin (P02701 25-152): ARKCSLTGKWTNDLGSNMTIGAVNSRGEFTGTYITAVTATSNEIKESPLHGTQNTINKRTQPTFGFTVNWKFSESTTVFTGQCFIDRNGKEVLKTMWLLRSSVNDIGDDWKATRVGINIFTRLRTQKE

O=C(O)CN1CCN(CC(=O)O)CCN(CC(=O)O)[C@@H](Cc2ccc([N+](=O)[O-])cc2)CN(CC(=O)O)CC1 [La-(S)NBD, (S)-2-(4-nitrobenzyl)-DOTA]
ΔΔG relative to the Y-(S)NBD complex (antibody 2D12.5; competitive ELISA): 2.9 kJ/mol

O=C(O)CN1CCN(CC(=O)O)CCN(CC(=O)O)[C@@H](Cc2ccc([N+](=O)[O-])cc2)CN(CC(=O)O)CC1 [Gd-(S)NBD, (S)-2-(4-nitrobenzyl)-DOTA]
relative binding to 2D12.5 (antibody 2D12.5; competitive ELISA): bind more tightly than the original Y^3+ complex

O=C(O)CN(CC(=O)O)CC(Cc1ccc(NC(=O)CBr)cc1)N(CC(=O)O)CC(=O)O (centres unmarked) [BABE, bromoacetamidobenzyl-EDTA]
whole-body clearance [1]: remain in the animals | apparent half-life, whole-body clearance [1]: 41 h

O=C(O)CN1CCN(CC(=O)O)CCN(CC(=O)O)[C@@H](Cc2ccc([N+](=O)[O-])cc2)CN(CC(=O)O)CC1 [Y-(S)NBD, (S)-2-(4-nitrobenzyl)-DOTA]
Kd (antibody 2D12.5; 37° C., competitive immunoassay): 10 nM

O=C(CBr)Oc1ccccc1 [phenylbromoacete]
cross-linking of linker-activated T97C to HLA-DR10 (HLA-DR10): mild reactivity

nitrophenylbromoacetate
cross-linking of linker-activated T97C to HLA-DR10 (HLA-DR10): strong cross-linking

(S)-1-p chloropropionamidobenzyl-EDTA [CpABE]
covalent attachment to Fab S95C light chain (Fab S95C): not

O=C(O)CCCC[C@@H]1SC[C@@H]2NC(=O)N[C@@H]21 [biotin]
KA (avidin): ~4e+09 M⁻¹

C=CC(=O)Nc1ccc(C[C@H]2CN(CC(=O)O)CCN(CC(=O)O)CCN(CC(=O)O)CCN2CC(=O)O)cc1 [In-AABD, (S)-2-(4-acrylamidobenzyl)-DOTA]
G54C sites blocked from 90Y-AABD (G54C mutant of 2D12.5; 10 μM complex, preincubation 5 min, pH 7.5): > 50% | permanent binding to G54C (G54C mutant of 2D12.5; pH 7.5, SDS-PAGE, listed as 111In-AABD): binds permanently

O=C(O)CN1CCN(CC(=O)O)CCN(CC(=O)O)CCN(CC(=O)O)CC1 [Y-DOTA, 1,4,7,10-tetraazacyclododecane-N,N′,N″,N′″-tetraacetic acid]
relative binding to 2D12.5 (antibody 2D12.5; competitive ELISA): lower than Y-(S)NBD but higher than Y-(R)NBD | relative binding to 2D12.5 (antibody 2D12.5; competitive ELISA, listed as Yttrium-DOTA): approximately in the middle

O=C(O)CN(CC(=O)O)CC(Cc1ccc(NC(=O)CCl)cc1)N(CC(=O)O)CC(=O)O (centres unmarked) [CABE, chloroacetamidobenzyl-EDTA]
whole-body clearance [1]: remain in the animals | apparent half-life, whole-body clearance [1]: 9 h | covalent attachment to Fab S95C light chain (Fab S95C): reacted equally well

C=CC(=O)Nc1ccc(C[C@H]2CN(CC(=O)O)CCN(CC(=O)O)CCN(CC(=O)O)CCN2CC(=O)O)cc1 [Cu-AABD, (S)-2-(4-acrylamidobenzyl)-DOTA]
G54C sites initially occupied (G54C mutant of 2D12.5; 10 μM complex, pH 7.5): about 10% | G54C sites blocked from 90Y-AABD (G54C mutant of 2D12.5; 10 μM complex, after 2 hr, pH 7.5): > 70%

B1: sL1: Lym-1 single-chain antibody, no cysteine mutation (protein)
scFv: RSQVQLKESGPGLVAPSQSLSITCTISGFSLTSYGVHWVRQPPGKGLEWLVVIWSDGSTTYNSALKSRLSISKDNSKSQVFLKMNSLQTDDTAIYYCASHYGSTLAFASWGHGTLVTVSAGGGGSGGGGSGGGGSDIQMTQSPASLSASVGETVTIICRASVNIYSYLAWYQQKQGKSPQLLVYNAKILAEGVPSRFSGSGSGTQFSLKINSLQPEDFGSYYCQHHYGTFTFGSGTKLEIKSRGPFEGKPIPNPLLGLDSTRTGHHHHHH
permanent attachment (cross-linking) to HLA-DR10β (HLA-DR10; sL1 construct treated with nitrophenyl ester, 37° C., 4 hr, western blot with HL-40): no reactive band appeared | monovalent affinity (HLADR): too weak to measure confidently, but probably in the micromolar range
